We go through 11 compounds from US20100190826A1, “BENZIMIDAZOLE DERIVATIVE” (priority 2007, published 2010).

Assay [1] has as its target T1, human 17βHSD type 5 (Homo sapiens, UniProt P42330).
T1 construct: A full-length cDNA encoding human 17βHSD type 5; GST (cleaved yes); made in house; host or cells: Escherichia coli BL21
T1 sequence (P42330 1-323): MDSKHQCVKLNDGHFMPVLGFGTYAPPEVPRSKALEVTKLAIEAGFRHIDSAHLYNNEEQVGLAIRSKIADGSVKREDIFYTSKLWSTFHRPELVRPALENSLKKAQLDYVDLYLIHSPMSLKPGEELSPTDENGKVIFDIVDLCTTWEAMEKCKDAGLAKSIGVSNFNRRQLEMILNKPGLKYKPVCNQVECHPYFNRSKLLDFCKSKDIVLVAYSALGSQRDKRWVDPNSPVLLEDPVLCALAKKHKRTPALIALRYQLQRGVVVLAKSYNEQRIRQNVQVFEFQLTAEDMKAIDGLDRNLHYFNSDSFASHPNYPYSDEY
As to the kind of experiment: Measurement of enzyme activity of human 17βHSD type 5 (testosterone production from androstenedione). Format: biochemical. Particulars: purified enzyme 10 μg/mL, androstenedione 300 nM, NADPH 200 μM, pH 6.0, room temperature 2 hours; read-out: Type5 IC50. An excerpt:
(§1) An excellent selective inhibitory activity against human 17βHSD type 5 of the compounds of the present invention was confirmed by the test method described below. In this connection, the test may be carried out by referring to the details of test procedure described in Maniatis, T. et al., Molecular Cloning—A Laboratory Manual Cold Spring Harbor Laboratory, NY (1982) and the like. In addition, genes encoding human 17βHSD type5 and type3 described in Sections 1 and 2 below, and human 17βHSD type 5 and type 3 may be obtained by the method described in Molecular Endocrinology, 1997, 11(13), 1971-1984.
1. Isolation of Gene Encoding Human 17βHSD Type 5 and Enzyme Purification
A full-length cDNA encoding human 17βHSD type 5 used in the pharmacological test of the present invention was obtained by the PCR method using a cDNA derived from a human lung cancer-derived cell line, A549 cells as a template. The nucleotide sequence of the obtained cDNA was analyzed by the dideoxyterminator method, and the clone matched with the known human 17βHSD type 5 sequence (GenBank accession No. NM_003739) was selected. Escherichia coli BL21 was transformed with a plasmid containing the cDNA and cultured on a large scale. The proteins were purified by using GSTrapFF column (manufactured by Amersham) and PreScissionProtease (manufactured by Amersham). The purification method was carried out in accordance with the instructions attached to the GSTrapFF column.
(§2) 3. Measurement of Enzyme Activities of Human 17βHSD Type 5 and Type 3
(§3) Enzyme activity was measured referring to Trevor M. Penning, et al., Biochem. J., 351, 67-77, (2000). Specifically, using a 100 mM potassium phosphate buffer (pH 6.0), (1) the enzyme purified in Section 1 at a final concentration of 10 μg/mL, (2) androstenedione at a final concentration of 300 nM, (3) NADPH at a final concentration of 200 μM, and (4) a test substance, were mixed to react at room temperature for 2 hours, and then the amount of testosterone produced was measured using DELFIA (registered trademark) Testosterone Reagents R050-201 (manufactured by PerkinElmer). The measurement was performed in accordance with the attached instructions. The amount of reduction of testosterone production in the presence of the compound was obtained as a relative value with respect to the amount of testosterone in the absence of the enzyme set at 0% and the amount of testosterone produced in the absence of the compound set at 100%. Then, IC50 values were calculated by the Logistic regression method.

Assay [2] concerns the target T2, human 17βHSD type 3 (Homo sapiens, UniProt P37058).
T2 construct: A full-length cDNA encoding human 17βHSD type 3; made in house; host or cells: human fetus kidney-derived 293 cells (transient, 24 h); supernatant of disrupted cells
T2 sequence (P37058 1-310): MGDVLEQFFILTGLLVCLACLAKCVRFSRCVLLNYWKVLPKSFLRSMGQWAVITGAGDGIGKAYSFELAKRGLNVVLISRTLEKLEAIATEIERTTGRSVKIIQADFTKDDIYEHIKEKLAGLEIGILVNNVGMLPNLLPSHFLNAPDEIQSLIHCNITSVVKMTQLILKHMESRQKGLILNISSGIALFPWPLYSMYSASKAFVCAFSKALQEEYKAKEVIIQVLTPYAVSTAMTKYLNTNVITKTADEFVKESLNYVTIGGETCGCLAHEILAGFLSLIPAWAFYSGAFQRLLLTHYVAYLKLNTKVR
Kind of assay: Measurement of enzyme activity of human 17βHSD type 3. Format: biochemical. Particulars: enzyme source: supernatant of transformed 293 cells; read-out: Type3 IC50.
Source text: as §1
2. Isolation of Gene Encoding Human 17βHSD Type 3 and Enzyme Purification
A full-length cDNA encoding human 17βHSD type 3 used in the pharmacological test of the present invention was obtained by the PCR method using a cDNA derived from human testis as a template. The nucleotide sequence of the obtained cDNA was analyzed by the dideoxyterminator method, and the clone matched with the known human 17βHSD type 3 sequence (GenBank accession No. BCO34281) was selected. Subsequently, human fetus kidney-derived cell line, 293 cells, were transformed with a plasmid containing the cDNA, and the cells were collected 24 hours later. The collected cells were then disrupted in a phosphate buffer solution containing 5% glycerol (500 μL per 100 mm-dish of a phosphate buffer solution (pH 7.4, 200 mM) containing 5% glycerol) and centrifuged (16000 rpm, 5 min, 4° C.), and the supernatant was used as an enzyme source.
as §2, §3

Assay [3] deals with T3, human 17βHSD type 5-expressing LNCaP cells (Homo sapiens, UniProt P42330).
T3 sequence (P42330 1-323): T1 sequence (P42330 1-323)
Kind of assay: Cell growth inhibitory activity using LNCaP cells expressing human 17βHSD type 5 (androstenedione-stimulated, CellTiter-Glo). Format: cell-based. The note with it: androstenedione 10 nM, culturing for 7 days; read-out: LNCaP-17β5 IC50. The protocol: Subsequently, LNCaP cells expressing human 17βHSD type 5 were constructed from a human prostate cancer-derived cell line, LNCaP cells, and a cell growth inhibitory activity of the compound of the present invention was evaluated.
4. Construction of LNCaP Cells Expressing Human 17βHSD Type 5
A full-length cDNA encoding human 17βHSD type 5 used in the pharmacological test of the present invention was obtained by the PCR method using a cDNA derived from a human lung cancer-derived cell line, A549 cells, as a template. The nucleotide sequence of the obtained cDNA was analyzed by the dideoxyterminator method, and the clone matched with the known human 17βHSD type 5 sequence (GenBank accession No. NM_003739) was selected. The human prostate cancer-derived cell line LNCaP cells were transformed with a plasmid containing the cDNA and the cell line showing stable expression was obtained.
5. Measurement of Cell Growth Capability Using LNCaP Cells Expressing Human 17βHSD Type 5
9000 cells/well of the transformed cells obtained in Section 4 above were seeded in a 96-well plate and cultured overnight. Then, androstenedione, in conjunction with a test compound, was added thereto at a final concentration of 10 nM, followed by culturing for 7 days. After the culturing, number of the cells was counted using a CellTiter-Glo (registered trademark) Luminescent Cell Viability Assay (Promega). The CellTiter-Glo (registered trademark) Luminescent Cell Viability Assay is a reagent that measures the number of the cells by monitoring an intracellular ATP level from the luminescence intensity by luciferase. The experimental manipulation was carried out in accordance with the attached instructions. The cell growth inhibitory activity in the presence of a test compound was calculated as a relative value with respect to the number of the cells in the absence of androstenedione set at proliferation of 0%, and the number of the cells in the presence of androstenedione and in the absence of the test compound set at proliferation of 100%. Then, IC50 values were calculated by the Logistic regression method.
On the technique in general: Cellular ATP, detected with luciferase, serves as a proxy for viable cell number.

For assay [4], the system named is 5α-reductase. Particulars: patients with BPH, after administration of finasteride; cited from earlier work.

As for `N#Cc1ccc2c(ccn2-c2cccc(C(=O)O)c2)c1` [Example 1, 3-(5-cyano-1H-indol-1-yl) benzoic acid], the IC50 (in general, the concentration needed to halve the response being measured) was 200 nM in assay [1] and above 10000 nM in assay [2]. Moreover, the GI50 in assay [3] worked out at 6680 nM.

As for `O=C(O)c1cccc(-n2cc(-c3ccccc3)c3cc(C(F)(F)F)ccc32)c1` [Example 6], the IC50 in assay [1] came out at 50 nM; in assay [2] it was 1800 nM. Further, in assay [3], the GI50 came to 46 nM.

Regarding `O=C(O)c1cccc(-n2c(-c3ccccc3)nc3cc(C(F)(F)F)ccc32)c1` [Example 17], the IC50 worked out at 180 nM in assay [1] and 6400 nM in assay [2]. Moreover, the GI50 in assay [3] turned out to be 66 nM.

With `O=C(O)c1cccc(-n2cnc3cc(C(F)(F)F)ccc32)c1` [Example 20], the figures for the half-inhibitory concentration (IC50) in assay [1] and in assay [2] were 120 nM and 7300 nM, respectively. Also, in assay [3], the GI50 is 101 nM.

Turning to `Cc1nc2cc(C(F)(F)F)ccc2n1-c1cccc(C(=O)O)c1` [Example 21], the IC50 in assay [1] was found to be 110 nM; in assay [2], 4700 nM. Further, the GI50 in assay [3] was determined as 102 nM.

On to `COc1nc2cc(C(F)(F)F)ccc2n1-c1cccc(C(=O)O)c1` [Example 32], for which the IC50 in assay [1] was found to be 120 nM. Further, in assay [3], the GI50 worked out at 46 nM.

Take `O=C(O)c1cccc(-n2c(Cc3ccccc3)nc3cc(C(F)(F)F)ccc32)c1` [Example 38]: the 50% inhibitory concentration (IC50) is 96 nM in assay [1] and above 10000 nM in assay [2]. The GI50 in assay [3] was determined as 45 nM.

Consider `O=C(O)c1cccc(-n2c(COc3ccccc3)nc3cc(C(F)(F)F)ccc32)c1` [Example 44], for which, in assay [1], the IC50 stood at 40 nM. The GI50 in assay [3] amounted to 34 nM.

As for `COCCc1cn(-c2cccc(C(=O)O)c2)c2ccc(C(F)(F)F)cc12` [Example 47, 3-[3-(2-methoxyethyl)-5-(trifluoromethyl)-1H-indol-1-yl]benzoic acid], the IC50 in assay [1] amounted to 180 nM; in assay [2] it was 2500 nM. Also, the GI50 in assay [3] amounted to 92 nM.

For the compound `O=C(O)c1cccc(-n2c(C(F)(F)F)nc3cc(C(F)(F)F)ccc32)c1` [Example 54, 3-[2,5-bis(trifluoromethyl)-1H-benzimidazol-1-yl]benzoic acid], the IC50 was 70 nM in assay [1] and 3200 nM in assay [2]. Besides, the GI50 in assay [3] came to 141 nM.

As for `CC(C)(C)NC(=O)[C@H]1CC[C@H]2[C@@H]3CC[C@H]4NC(=O)C=C[C@]4(C)[C@H]3CC[C@]12C` [finasteride], in assay [4], the “concentration of DHT in the prostate relative to the concentration before the administration” value is recorded as “about 20%” and the “increase of the concentration of testosterone in the prostate” value is reported as 4 fold.
